Values of other authors in paper PMC10534093 (Food Chemistry: X, 2023).

Biological target: α-glucosidase
Conditions: ref Zhang, Wang, & Li, 2016

Row | IC50 against α-glucosidase [µg/mL] | Substance
1 | 93 | NSPR

Tested on: α-glucosidase
Conditions: Table 1; ref BIOPEP-UWM and AHTPDB

Row | Known activity in the database | Substance
2 | Alpha-glucosidase inhibitor | IQAEGGLT [reference compound]
3 | Alpha-glucosidase inhibitor | IVTVEGGLSVISPKW
4 | Alpha-glucosidase inhibitor | TFSEYPPLGR

Tested on: ACE
Conditions: ref Kheeree et al., 2020

Row | IC50 against ACE [µg/mL] | Substance
5 | 8 | GPAGPAGL

Same assay, conditions: ref Sitanggang, Putri, Palupi, Hatzakis, & Budijanto, 2021

Row | IC50 against ACE [µg/mL] | Substance
6 | 400 | IPPGVPYWT

Same assay, conditions: ref Tu et al., 2018

Row | IC50 against ACE [µg/mL] | Substance
7 | 2830 | NMAINPSKENLCSTFCK

Same assay, conditions: reference peptide; ref Yu, Zhao, Liu, Lu, & Chen, 2011

Row | IC50 against ACE [µg/mL] | Substance
8 | 420 | QIGLF [reference compound]

Tested on: ACE
Conditions: Table 2; ref BIOPEP-UWM and AHTPDB

Row | Substance | Known activity in the database
9 | DRDSYNLHPGDAQRIPAGTTY | ACE inhibitor
10 | DRPSIGNLAGANSLLNALP | ACE inhibitor
11 | EGEQPRPFPFP | ACE inhibitor
12 | IGTLAGANSLLNALP | ACE inhibitor
13 | NNPFKFLVPPQESQKR | ACE inhibitor
14 | PFSFLVPPQESQR | ACE inhibitor
15 | PIYSNKLGKFF | ACE inhibitor
16 | PLDLTSFVLH | ACE inhibitor
17 | PSEVEAVFKPLGPEVGELRV | ACE inhibitor
18 | PSSPFTDLWDPRRVGD | ACE inhibitor
19 | QIGLF [reference compound] | ACE inhibitor
20 | RPSIGNLAGANSLLNALP | ACE inhibitor
21 | RPSIGNLAGANSLLNALPE | ACE inhibitor
22 | TPMIGTLAGANSLLNALP | ACE inhibitor
23 | VISQIPSQVQELAFPG | ACE inhibitor
24 | WGPLVNPESQQGSPR | ACE inhibitor
25 | YEAGVVPPGARFEPPR | ACE inhibitor
